The source made the active and inactive calls.
What was measured:
[1] = IC50 of Artemis nuclease activity blockers – biochemical, fluorescence intensity, dose response (AID 720701); type: functional;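 further: Artemis endonuclease enzyme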
[2] = biological target: Paired box protein Pax-8 (Homo sapiens, UniProt Q06710); assay: PAX8 transcriptional activity inhibition in RMG-I – RMG-I cells, luciferase, cherry-pick, dose response (AID 687027); type: functional, cell-based;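 further: luciferase reporter driven by Pax8 target thyroperoxidase promoter measured by SteadyGlo luminescence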
[3] = A2780 cell killing – plate reader, dry powder samples, cytotoxicity control, dose response (AID 743046); type: functional, cell-based
[4] = OVCAR8 cell viability loss – plate reader, dry powder samples, PAX8 project, dose response (AID 743197); type: functional, cell-based; settings: OVCAR-8
[5] = biological target: T1, Mannose-6-phosphate isomerase (Homo sapiens, UniProt P34949); assay: MPI inhibition at elevated mannose 6-phosphate – biochemical, fluorescence intensity, high mannose 6-phosphate, primary screen (AID 1220)
T1 sequence (P34949 whole entry): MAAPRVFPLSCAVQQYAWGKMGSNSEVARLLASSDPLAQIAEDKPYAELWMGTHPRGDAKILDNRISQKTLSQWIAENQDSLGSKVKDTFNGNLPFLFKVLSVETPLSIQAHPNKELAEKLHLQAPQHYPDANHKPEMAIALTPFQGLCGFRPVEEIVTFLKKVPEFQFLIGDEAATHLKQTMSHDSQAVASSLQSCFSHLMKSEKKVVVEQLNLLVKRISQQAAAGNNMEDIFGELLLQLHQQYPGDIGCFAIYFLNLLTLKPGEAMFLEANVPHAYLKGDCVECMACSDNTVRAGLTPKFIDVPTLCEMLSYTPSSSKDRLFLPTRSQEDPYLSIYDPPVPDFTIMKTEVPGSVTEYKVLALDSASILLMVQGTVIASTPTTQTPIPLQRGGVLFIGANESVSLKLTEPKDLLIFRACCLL

[6] = tested on: Streptococcus sp. 'group A'; assay: Streptococcus pyogenes SK(-)GAS viability under kanamycin – luminescence, BacTiterGlo, confirmation, counter-screen for streptokinase expression inhibitor project, dose response (AID 1900); type: functional, organism-based
[7] = biological target: T2, Streptokinase A (Streptococcus pyogenes serotype M1, UniProt P10520); assay: viability-normalized secreted streptokinase activity reduction – plasminogen activation absorbance, OD405, dose response (AID 1914); type: functional, Streptococcus pyogenes M1 GAS;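 further: secreted streptokinase activity via plasminogen activation per viability signal from cell pellet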
T2 sequence (P10520 whole entry): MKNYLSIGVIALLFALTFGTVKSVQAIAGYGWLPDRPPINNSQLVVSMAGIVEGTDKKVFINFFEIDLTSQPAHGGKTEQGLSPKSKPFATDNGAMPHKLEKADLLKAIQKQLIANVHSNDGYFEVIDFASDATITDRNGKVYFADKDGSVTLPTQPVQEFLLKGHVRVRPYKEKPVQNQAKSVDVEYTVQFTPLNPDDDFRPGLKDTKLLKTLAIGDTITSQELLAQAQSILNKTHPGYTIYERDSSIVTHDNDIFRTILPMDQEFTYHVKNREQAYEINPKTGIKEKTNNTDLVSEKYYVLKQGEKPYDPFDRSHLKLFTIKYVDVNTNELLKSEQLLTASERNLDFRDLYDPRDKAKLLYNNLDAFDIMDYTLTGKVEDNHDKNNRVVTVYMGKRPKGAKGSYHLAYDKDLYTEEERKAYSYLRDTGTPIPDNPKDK

[8] = viability of PTEN-deleted HCT116 cells – cell-based, HCT116 PTEN knockout, dose response (AID 1047); type: functional;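 further: HCT116 colon tumor cells with PTEN knocked out; cells exposed to compound for 60 hours before readout; potency for loss of cell viability measured by luminescence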
[9] = viability of HCT116 lacking mutant beta-catenin – cell-based, human colon tumor, dose response (AID 1045); type: functional;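 further: HCT116 colon tumor cells with beta catenin knocked out; cells exposed to compound for 60 hours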
[10] = tested on: Streptococcus; assay: GAS UMAA2166 growth inhibition – luminescence, BacTiterGlo, counter-screen for streptokinase expression inhibitor project, dose response (AID 1915); type: functional, organism-based;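 further: potency for reduction of bacterial viability or growth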
[11] = biological target: T3, Protein skinhead-1 (Caenorhabditis elegans, UniProt P34707); type: functional
T3 sequence (P34707 whole entry): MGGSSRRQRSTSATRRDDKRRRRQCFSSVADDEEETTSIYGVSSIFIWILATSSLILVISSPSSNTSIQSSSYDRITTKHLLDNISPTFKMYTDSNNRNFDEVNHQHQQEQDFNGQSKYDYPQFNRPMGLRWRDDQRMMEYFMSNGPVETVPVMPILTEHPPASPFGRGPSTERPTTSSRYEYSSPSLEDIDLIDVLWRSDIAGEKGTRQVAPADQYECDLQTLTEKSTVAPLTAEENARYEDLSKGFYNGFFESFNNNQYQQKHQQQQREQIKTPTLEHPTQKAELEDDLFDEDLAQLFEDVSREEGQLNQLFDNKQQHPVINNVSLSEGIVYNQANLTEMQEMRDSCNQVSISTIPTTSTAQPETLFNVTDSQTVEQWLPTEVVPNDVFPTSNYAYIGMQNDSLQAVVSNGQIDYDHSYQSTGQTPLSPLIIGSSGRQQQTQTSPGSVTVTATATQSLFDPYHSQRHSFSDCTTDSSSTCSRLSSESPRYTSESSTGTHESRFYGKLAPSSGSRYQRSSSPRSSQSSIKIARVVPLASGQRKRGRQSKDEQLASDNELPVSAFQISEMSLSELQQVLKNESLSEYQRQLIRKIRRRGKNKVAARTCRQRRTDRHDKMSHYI

[12] = biological target: Disintegrin and metalloproteinase domain-containing protein 17 (Homo sapiens, UniProt P78536); assay: inhibition of ADAM17 substrate cleavage – biochemical, quenched FRET substrate, counter-screen for ADAM10 exosite inhibitor project, dose response (AID 743253)
[13] = biological target: Induced myeloid leukemia cell differentiation protein Mcl-1 (Homo sapiens, UniProt Q07820); type: functional
[14] = tested on: Vero; assay: viability of Vero cells under compound – cytotoxicity control for flavivirus capping enzyme inhibitors (AID 588742); type: functional; settings: Chlorocebus sabaeus
[15] = biological target: T4, Apoptotic protease-activating factor 1 (Homo sapiens, UniProt O14727); type: functional
T4 sequence (O14727 whole entry): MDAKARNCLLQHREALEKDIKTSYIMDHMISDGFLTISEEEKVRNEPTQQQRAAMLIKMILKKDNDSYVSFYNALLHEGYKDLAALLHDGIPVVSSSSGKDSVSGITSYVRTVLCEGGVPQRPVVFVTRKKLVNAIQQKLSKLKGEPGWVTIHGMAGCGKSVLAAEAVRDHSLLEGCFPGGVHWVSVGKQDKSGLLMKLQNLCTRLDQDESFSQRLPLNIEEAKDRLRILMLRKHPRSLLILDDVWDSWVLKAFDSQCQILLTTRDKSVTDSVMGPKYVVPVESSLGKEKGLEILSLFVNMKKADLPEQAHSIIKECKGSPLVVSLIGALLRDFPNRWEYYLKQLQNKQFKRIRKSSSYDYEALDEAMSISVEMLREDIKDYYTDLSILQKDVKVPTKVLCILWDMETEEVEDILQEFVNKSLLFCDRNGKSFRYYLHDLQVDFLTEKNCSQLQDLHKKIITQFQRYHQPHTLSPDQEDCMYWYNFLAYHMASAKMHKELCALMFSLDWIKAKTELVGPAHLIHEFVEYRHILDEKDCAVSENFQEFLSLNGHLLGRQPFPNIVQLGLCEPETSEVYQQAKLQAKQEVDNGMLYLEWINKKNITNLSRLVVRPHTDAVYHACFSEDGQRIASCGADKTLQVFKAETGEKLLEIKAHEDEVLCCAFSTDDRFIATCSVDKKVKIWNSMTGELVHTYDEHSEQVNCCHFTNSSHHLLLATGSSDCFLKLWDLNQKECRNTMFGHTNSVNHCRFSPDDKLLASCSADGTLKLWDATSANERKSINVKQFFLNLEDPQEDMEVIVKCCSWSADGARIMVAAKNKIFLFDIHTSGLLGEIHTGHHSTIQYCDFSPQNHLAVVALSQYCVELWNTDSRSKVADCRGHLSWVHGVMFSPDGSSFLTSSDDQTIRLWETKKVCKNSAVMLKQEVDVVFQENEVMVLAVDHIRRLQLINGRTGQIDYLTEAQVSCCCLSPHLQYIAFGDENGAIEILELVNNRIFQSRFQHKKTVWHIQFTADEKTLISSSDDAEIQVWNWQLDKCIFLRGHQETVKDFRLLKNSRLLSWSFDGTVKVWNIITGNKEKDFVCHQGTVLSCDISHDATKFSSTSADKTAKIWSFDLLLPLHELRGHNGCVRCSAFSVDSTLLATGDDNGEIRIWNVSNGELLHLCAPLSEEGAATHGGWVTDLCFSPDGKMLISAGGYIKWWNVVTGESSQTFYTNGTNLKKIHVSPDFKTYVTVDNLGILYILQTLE

[16] = biological target: T5, Cytochrome P450 1A2 (Homo sapiens, UniProt P05177);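 further: PubChem cytochrome P450 panel assay, CYP1A2 panel member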
T5 sequence (P05177 whole entry): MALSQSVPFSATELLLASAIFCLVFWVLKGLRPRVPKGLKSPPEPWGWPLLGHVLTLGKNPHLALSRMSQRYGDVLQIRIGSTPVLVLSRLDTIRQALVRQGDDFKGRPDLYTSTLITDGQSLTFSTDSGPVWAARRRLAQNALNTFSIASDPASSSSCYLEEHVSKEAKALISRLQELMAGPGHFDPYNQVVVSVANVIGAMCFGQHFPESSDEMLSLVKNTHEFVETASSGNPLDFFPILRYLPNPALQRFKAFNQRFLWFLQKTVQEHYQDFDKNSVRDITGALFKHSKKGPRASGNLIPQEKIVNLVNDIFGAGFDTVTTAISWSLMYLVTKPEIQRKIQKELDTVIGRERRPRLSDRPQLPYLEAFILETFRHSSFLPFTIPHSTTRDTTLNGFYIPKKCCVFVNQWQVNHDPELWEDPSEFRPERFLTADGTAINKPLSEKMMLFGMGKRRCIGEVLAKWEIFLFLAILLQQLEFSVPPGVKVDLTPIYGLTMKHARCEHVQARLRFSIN

[17] = biological target: NAD-dependent protein deacylase sirtuin-5, mitochondrial (Homo sapiens, UniProt Q9NXA8); assay: sirtuin-5 deacylation blockers, concentration series – biochemical, fluorescence imaging, cherry-pick, set 5, dose response (AID 720591);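 further: desuccinylation of succinyl peptide AMC substrate read as fluorescence after trypsin release; potency of inhibitors that lower fluorescence and may act on trypsin instead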
Chain of NAD-dependent protein deacylase sirtuin-5, mitochondrial (Q9NXA8 whole entry): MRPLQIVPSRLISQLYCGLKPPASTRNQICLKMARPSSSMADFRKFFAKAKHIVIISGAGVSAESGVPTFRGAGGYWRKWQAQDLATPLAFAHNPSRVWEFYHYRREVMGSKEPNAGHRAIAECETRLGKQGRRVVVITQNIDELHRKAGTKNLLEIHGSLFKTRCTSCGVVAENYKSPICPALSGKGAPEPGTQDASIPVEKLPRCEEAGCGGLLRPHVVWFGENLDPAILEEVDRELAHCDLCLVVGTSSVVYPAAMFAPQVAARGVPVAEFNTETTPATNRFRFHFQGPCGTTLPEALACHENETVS

Chain of Paired box protein Pax-8 (Q06710 whole entry): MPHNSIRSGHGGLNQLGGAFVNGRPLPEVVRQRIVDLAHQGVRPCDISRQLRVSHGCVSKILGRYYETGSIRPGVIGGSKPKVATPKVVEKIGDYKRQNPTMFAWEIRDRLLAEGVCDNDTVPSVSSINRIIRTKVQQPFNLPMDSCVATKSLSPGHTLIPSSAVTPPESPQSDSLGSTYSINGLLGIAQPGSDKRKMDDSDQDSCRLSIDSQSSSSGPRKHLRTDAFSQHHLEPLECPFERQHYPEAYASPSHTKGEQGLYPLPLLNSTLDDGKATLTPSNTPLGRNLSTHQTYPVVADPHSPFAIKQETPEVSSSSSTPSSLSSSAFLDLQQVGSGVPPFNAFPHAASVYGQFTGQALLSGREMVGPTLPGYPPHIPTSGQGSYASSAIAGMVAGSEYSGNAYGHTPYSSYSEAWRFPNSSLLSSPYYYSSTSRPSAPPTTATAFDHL
Chain of Induced myeloid leukemia cell differentiation protein Mcl-1 (Q07820 whole entry): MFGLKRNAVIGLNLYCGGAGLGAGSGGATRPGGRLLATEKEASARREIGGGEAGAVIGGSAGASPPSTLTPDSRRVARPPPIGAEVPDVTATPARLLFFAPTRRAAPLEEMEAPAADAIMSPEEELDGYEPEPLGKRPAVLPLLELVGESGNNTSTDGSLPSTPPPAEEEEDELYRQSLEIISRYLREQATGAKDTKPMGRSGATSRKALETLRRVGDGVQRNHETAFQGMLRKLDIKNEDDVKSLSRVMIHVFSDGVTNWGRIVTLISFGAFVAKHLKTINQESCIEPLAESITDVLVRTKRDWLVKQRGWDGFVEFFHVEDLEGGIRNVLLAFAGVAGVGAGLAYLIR
Chain of Disintegrin and metalloproteinase domain-containing protein 17 (P78536 whole entry, the tested form may be a part): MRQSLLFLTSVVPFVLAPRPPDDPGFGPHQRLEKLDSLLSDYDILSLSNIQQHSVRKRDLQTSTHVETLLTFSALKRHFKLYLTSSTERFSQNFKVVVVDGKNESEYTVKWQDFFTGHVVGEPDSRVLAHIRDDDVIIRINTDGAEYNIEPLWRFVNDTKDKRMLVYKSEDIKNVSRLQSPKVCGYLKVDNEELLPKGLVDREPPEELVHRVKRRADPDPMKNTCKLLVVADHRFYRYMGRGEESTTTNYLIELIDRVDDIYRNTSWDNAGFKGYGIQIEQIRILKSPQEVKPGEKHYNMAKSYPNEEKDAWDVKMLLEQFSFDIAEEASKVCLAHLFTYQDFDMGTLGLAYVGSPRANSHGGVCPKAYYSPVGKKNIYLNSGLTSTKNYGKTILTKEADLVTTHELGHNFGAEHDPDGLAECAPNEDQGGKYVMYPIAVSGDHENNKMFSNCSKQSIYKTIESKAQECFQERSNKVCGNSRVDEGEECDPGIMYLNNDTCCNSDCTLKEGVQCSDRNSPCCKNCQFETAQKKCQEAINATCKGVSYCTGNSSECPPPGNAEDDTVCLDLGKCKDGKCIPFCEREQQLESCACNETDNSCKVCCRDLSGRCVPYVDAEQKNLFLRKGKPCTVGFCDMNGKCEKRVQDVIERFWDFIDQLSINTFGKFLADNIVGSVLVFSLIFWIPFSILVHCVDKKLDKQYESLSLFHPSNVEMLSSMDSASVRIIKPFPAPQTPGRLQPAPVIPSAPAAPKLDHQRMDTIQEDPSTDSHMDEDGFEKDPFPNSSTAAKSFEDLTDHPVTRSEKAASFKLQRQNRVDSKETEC

SMILES: CCOc1cccc(C(=O)NC(=S)Nc2ccc(N3CCCC3)cc2)c1
- IC50 [1]: > 20 µM (inactive)

SMILES: C[C@@H]1CN([C@@H](C)CO)C(=O)c2cc(NC(=O)Nc3ccc(C(F)(F)F)cc3)ccc2O[C@@H](C)CCCCO[C@H]1CN(C)C(=O)c1ccccc1
- AC50 [2]: 5.18 µM (active)
- AC50 [3]: 54.3 µM (active)
- AC50 [4]: > 70 µM (inactive)

SMILES: Oc1nc2cc3c(cc2cc1CN(Cc1cccnc1)C(S)=NCc1ccco1)OCCO3
- IC50 [5]: > 50 µM (not active)

SMILES: COc1ccc(S(=O)(=O)Nc2cc3c4c(oc3c3ccccc23)CC(C)(C)CC4=O)cc1
- EC50 [6]: 9.62 µM (active)
- EC50 [7]: 97 µM (active)
- EC50 [8]: 20.1 µM (active)
- EC50 [9]: 26.6 µM (active)
- EC50 [10]: 78.6 µM (active)
- IC50 [11]: > 100 µM (inactive)
- IC50 [12]: > 69.5 µM (inactive)

SMILES: Cc1ccc(N=Nc2c(N)nn3c(O)cc(-c4ccccc4)nc23)cc1
- IC50 [13]: 12.9 µM (active)
- CC50 [14]: 25.1 µM (active)
- IC50 [15]: 13.8 µM (active)
- IC50 [1]: 16.9 µM (active)

SMILES: Brc1c(NC2=NCCN2)ccc2nccnc12 [BRIMONIDINE]
- IC50 [5]: > 50 µM (not active)
- AC50 [16]: 39.8 µM (inconclusive)

SMILES: C[C@@H]1C=CCCO[C@]12C(=O)N(Cc1ccccc1C(F)(F)F)c1ccccc12
- AC50 [17]: > 30 µM (inactive)

SMILES: C[C@H](CO)N1C[C@H](C)[C@@H](CN(C)Cc2ccc(Cl)c(Cl)c2)OCCCC[C@H](C)Oc2ccc(NS(=O)(=O)c3ccc(F)cc3)cc2C1=O
- AC50 [2]: 15.6 µM (active)
- AC50 [3]: 49.6 µM (active)
- AC50 [4]: > 70 µM (inactive)
